{
  "source": "patent US6623914B2",
  "about": "“Method for preparing an acid salt of p-phenylenediamine-type photographic color developers” (Eastman Chemical Company, priority 2001, dated 2003)",
  "experiment": "Solubility (saturation concentration) of color developer free base in solvents at ambient temperature",
  "settings": "ambient temperatures; liquid free base; stated, saturation concentration not evaluated",
  "experimental": "To define the free base solution product compositions, the solubility of the free base form of color developers N-ethyl-N-(2-methanesulfonylaminoethyl)-2-methyl-p-phenylenediamine and N-ethyl-N-(2-hydroxyethyl)-2-methyl-p-phenylenediamine was determined in a number of potential solvents at ambient temperature, nominally 24° C.\nA small quantity, about 3 weight % relative to the weight of the solvent, of N,N-diethylhydroxylamine (DEHA) was added as a preservative to each determination. Excess color developer free base identified above was added to each solvent and saturation was achieved by mixing for several hours at room temperature.",
  "data": [
    {"smiles": "CCN(CC)c1ccc(N)cc1C", "note": "[N,N-diethyl-2-methyl-p-phenylenediamine]", "values": [
      {"measurement": "Miscibility with the water-soluble, water-miscible, hydroxy-containing solvent candidates", "value": "fully miscible"}
    ]}
  ]
}
